# Measurements taken from paper PMC11399263 (Nature Communications, 2024).
# Experiments:
# MefHα/DmgHβ = molecular target: T1, MefHα/DmgHβ (Aminobacter niigataensis, UniProt A0AAX7FLU4); experiment: guanylurea production by LC-MS; format: biochemical; conditions: 2 mM substrate, Tris-HCl pH 8, 30 °C
# T1 construct: gene N7E70_023840; subunit-swapped heteromer of full-length subunits from two strains, co-expressed in E. coli; with Dimethylguanidine hydrolase subunit beta
# T1 sequence (A0AAX7FLU4 20-376): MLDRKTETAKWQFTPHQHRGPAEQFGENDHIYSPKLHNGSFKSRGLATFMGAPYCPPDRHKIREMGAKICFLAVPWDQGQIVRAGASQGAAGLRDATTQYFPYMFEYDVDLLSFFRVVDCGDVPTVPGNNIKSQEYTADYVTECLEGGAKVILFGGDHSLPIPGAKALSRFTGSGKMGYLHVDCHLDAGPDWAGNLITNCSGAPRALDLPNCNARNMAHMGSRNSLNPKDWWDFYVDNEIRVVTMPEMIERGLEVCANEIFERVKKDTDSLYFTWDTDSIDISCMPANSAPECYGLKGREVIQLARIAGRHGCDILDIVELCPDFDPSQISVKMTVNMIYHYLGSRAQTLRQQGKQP
# T1 sequence (A0ABR6L539 1-348 partner): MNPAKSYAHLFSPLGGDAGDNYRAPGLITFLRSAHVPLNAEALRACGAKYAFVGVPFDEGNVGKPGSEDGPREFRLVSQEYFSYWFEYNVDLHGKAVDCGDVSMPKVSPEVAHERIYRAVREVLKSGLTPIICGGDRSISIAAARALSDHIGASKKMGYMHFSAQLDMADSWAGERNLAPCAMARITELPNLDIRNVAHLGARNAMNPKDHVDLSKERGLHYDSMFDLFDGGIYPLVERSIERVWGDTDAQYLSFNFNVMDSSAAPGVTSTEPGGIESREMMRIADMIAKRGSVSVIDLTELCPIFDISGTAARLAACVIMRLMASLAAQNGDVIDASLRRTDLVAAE
# [1] = molecular target: 6x His-tagged metformin hydrolase α subunit of Aminobacter niigataensis MD1 (Aminobacter niigataensis MD1); experiment: crystal structure; 6x His-AnMefH complex, 13.3 mg/ml; crystals from 20% PEG 3350, 100 mM Bis Tris Propane-HCl pH 6.5, 200 mM NaF, 18 °C; soaked with urea
stoichiometry N (MefHβ per MefHα) [1],Compound,guanylurea production by LC-MS (MefHα/DmgHβ)
,CN(C)C(=N)NC(=N)N [metformin],MefHα/DmgHβ preferentially hydrolyzed metformin
2,"metformin hydrolase β subunit of Aminobacter niigataensis MD1, untagged (natural protein)",
